Measurements as given in patent US5324648A, “Substituted isocoumarins as serine protease inhibitors and anti-inflammatory agents” (Georgia Tech Research Corporation, priority 1992, dated 1994).
Where two headings read alike, the source gives them in different places.

Columns and labels:
[1] = target: T1, porcine pancreatic elastase (PPE) (Sus scrofa, UniProt P00772); assay: Inactivation of porcine pancreatic elastase (PPE); assay type: biochemical
T1 construct: from tissue; host or cells: porcine pancreas (from the name)
T1 sequence (P00772 27-266): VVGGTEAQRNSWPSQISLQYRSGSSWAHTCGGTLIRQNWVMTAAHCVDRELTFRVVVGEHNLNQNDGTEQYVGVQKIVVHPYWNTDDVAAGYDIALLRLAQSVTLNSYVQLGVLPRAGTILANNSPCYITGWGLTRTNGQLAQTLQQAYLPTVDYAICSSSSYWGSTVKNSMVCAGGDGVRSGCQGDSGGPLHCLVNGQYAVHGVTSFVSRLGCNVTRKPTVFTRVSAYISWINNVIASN

[2] = target: T2, human leukocyte elastase (HLE) (Homo sapiens, UniProt P08246); assay: Inactivation of human leukocyte elastase (HLE); assay type: biochemical; conditions: read-out: kobs/[I]
T2 construct: from tissue; host or cells: human leukocytes (from the name)
T2 sequence (P08246 30-267): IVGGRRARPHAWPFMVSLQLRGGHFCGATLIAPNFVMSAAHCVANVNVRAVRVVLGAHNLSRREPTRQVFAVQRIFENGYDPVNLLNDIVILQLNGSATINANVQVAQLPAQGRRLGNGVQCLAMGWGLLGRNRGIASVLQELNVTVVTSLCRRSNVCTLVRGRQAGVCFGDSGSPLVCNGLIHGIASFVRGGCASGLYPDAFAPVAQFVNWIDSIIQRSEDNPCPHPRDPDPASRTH

chymotrypsin = chymotrypsin (Bos taurus, UniProt P00766); assay: Inactivation of chymotrypsin; assay type: biochemical, bovine; conditions: read-out: kobs/[I]
cathepsin G = target: T3, cathepsin G (Homo sapiens, UniProt P08311); assay: Inactivation of cathepsin G; assay type: biochemical; conditions: pH 7.5, 25° C, read-out: kobs/[I]
T3 construct: from tissue; host or cells: human leukocytes
T3 sequence (P08311 21-255): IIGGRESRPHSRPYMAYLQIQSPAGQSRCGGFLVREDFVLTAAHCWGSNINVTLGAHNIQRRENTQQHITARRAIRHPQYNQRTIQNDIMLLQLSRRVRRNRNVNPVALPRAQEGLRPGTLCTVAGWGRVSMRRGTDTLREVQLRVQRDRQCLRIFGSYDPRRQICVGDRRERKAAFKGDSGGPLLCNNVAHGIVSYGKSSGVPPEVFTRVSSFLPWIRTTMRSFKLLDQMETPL

bovine thrombin = target: T4, bovine thrombin (Bos taurus, UniProt P00735); assay: Inactivation rate of bovine thrombin; assay type: biochemical; conditions: Table VIII; pH 7.5, 25° C; [I] 1.2-54 μM; read-out: kobs/[I]
T4 construct: bovine thrombin
Protocol: (§1) Inactivation rates of serine proteases by substituted isocoumarins were measured by the incubation method. An aliquot of inhibitor (25 or 50 μl) in Me2 SO was added to a buffered enzyme solution (0.01-2.3 μM) to initiate the inactivation. Aliquots (50 μl) were withdrawn at various intervals and the residual enzymatic activity was measured. Me2 SO concentration in the reaction mixture was 8-12% (v/v). 0.1 Hepes, 0.01M CaCl2, pH 7.5 buffer was utilized for trypsin and coagulation enzymes. 0.1M Hepes, 0.5M NaCl, pH 7.5 was utilized for other serine proteases. The inhibitor concentrations are shown in all the tables. Peptide thioesters or peptide nitroanilides with appropriate sequence were used as substrates for various serine proteases. All peptide thioester hydrolysis rates were measured with assay mixtures containing 4,4'-dithiodipyridine (ε324 =19800M^-1 cm^-1; Grasetti & Murray, Arch. Biochem. Biophys. 119, pp 41-49 (1967)). Peptide 4-nitroanilide nitroanilide hydrolysis was measured at 410 nm (ε410 =8800M^-1 cm^-1; Erlanger et al., Arch. Biochem. Biophys. 95, pp 271-278 (1961)). First order inactivation rate constant (kobs) were obtained from plots of ln (vt /vo) vs time, and the correlation coefficients were greater than 0.98.
(§2) ^a Conditions were as 0.1M Hepes, 0.01M CaCl2, pH 7.5 and 8-12%
(§3) Me2 SO and 25° C. Rate constants were measured by incubation
(§4) method unless otherwise noted. An aliquot of inhibitor was added to an
(§5) enzyme solution and aliquots removed with time and assayed for remaining
(§6) enzymatic activity. Firstorder rate constants, kobs were obtained
(§7) from the plots of ln(vt /vo) versus time.
(§8) ^a Inhibition rates were measured in 0.1M Hepes, 0.01M CaCl2, pH
(§9) 7.5 buffer, 8% Me2 SO and at 25° C.

human thrombin = target: T5, human thrombin (Homo sapiens, UniProt P00734); assay: Inactivation rate of human thrombin; assay type: biochemical; conditions: Table VIII; pH 7.5, 25° C; [I] 1.2-54 μM; read-out: kobs/[I]
T5 construct: human thrombin
Protocol: as §1, §8, §9

human lung tryptase = assay: Inactivation rate of human lung tryptase; assay type: biochemical; conditions: Table IX; for percentage of inhibition: not time dependent, at 0.34-5.0 μM
Protocol: as §1
^a Inactivation rates were measured at 0.1M Hepes, 0.5M NaCl, pH 7.5
buffer, 8% Me2 SO and 25° C.
as §8
(§10) 7.5 buffer for human plasmin; 25 mM Phosphate, 0.5M NaCl, 1 mM EDTA, pH
(§11) 7.5 buffer for rat skin tryptase and 0.1M Hepes, 0.5M NaCl, pH 7.5 for
(§12) human lung tryptase, human skin tryptase and rt-PA. All enzymes were
(§13) assayed with ZArg-SBzl (0.07 mM) in the presence of 4,4dithiodipyridine
(§14) (0.33 mM). Reaction mixtures contained 8% Me2 SO and assays were […]

rat skin tryptase = target: T6, rat skin tryptase (Rattus norvegicus, UniProt P27435); assay: Inactivation rate of rat skin tryptase; assay type: biochemical; conditions: pH 7.5, Table IX; pH 7.5, 25° C; [I] 0.42-0.51 μM; read-out: kobs/[I]
T6 construct: from tissue; host or cells: rat skin
T6 sequence (P27435 29-273): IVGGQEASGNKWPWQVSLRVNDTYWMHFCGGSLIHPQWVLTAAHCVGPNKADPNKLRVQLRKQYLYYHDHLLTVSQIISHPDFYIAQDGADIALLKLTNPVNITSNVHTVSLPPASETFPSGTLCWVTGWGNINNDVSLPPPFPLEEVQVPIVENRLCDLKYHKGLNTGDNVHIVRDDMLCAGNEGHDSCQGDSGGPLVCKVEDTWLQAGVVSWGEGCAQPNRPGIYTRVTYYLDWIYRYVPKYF
Protocol: as §1
^b Inactivation rates were measured at 25 mM phosphate, 0.5M NaCl, 1
mM EDTA, pH 7.5 buffer, 9% Me2 SO and 25° C.
as §8, §10, §11, §12, §13, §14

[3] = target: recombinant human tissue plasminogen activator (Homo sapiens, UniProt P00750); assay: Inactivation rate of recombinant human tissue plasminogen activator; assay type: biochemical; conditions: for kinact/KI: pH 7.5, Table IX, pH 7.5, 25° C, [I] 3.5-5.0 μM, read-out: kobs/[I]
recombinant human tissue plasminogen activator, sequence (P00750 36-562): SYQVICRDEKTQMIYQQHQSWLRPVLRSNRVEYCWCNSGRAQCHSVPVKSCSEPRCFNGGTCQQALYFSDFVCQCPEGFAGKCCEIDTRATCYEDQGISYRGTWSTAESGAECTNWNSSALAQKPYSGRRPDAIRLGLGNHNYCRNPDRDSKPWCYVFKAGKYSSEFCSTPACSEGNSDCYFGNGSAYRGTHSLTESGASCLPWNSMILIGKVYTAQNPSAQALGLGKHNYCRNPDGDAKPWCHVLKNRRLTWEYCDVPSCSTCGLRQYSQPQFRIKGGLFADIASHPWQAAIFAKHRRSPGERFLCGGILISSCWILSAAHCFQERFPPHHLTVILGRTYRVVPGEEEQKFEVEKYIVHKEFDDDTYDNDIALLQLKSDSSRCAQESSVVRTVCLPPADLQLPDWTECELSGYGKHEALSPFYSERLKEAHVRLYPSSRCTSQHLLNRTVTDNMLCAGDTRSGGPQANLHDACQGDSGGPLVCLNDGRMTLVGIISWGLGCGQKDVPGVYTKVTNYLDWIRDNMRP
Protocol: as §1
^a Inactivation constants were measured at 0.1M Hepes, 0.5M NaCl (or
as §8, §10, §11, §12, §13, §14

bovine trypsin = target: T7, bovine trypsin (Bos taurus, UniProt P00760); assay: Inactivation rate of bovine trypsin; assay type: biochemical; conditions: Table VIII; pH 7.5, 25° C; [I] 1.1-4.6 μM; read-out: kobs/[I]
T7 sequence (P00760 24-246): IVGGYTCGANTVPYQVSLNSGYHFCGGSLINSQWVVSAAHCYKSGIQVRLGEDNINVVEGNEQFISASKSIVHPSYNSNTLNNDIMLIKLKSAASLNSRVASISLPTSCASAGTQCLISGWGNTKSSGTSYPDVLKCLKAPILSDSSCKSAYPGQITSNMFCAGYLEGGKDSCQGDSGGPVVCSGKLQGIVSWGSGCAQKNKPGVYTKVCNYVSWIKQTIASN
Protocol: as §1, §2, §3, §4, §5, §6, §7, §8, §9

[4] = pH 7.5, Table XVI, second order, equimolar inhibitor and enzyme

O=c1oc(OCCBr)c(Cl)c2ccc(NC(=S)Nc3ccccc3)cc12 [7-phenylthiocarbamoylamino-4-chloro-3-(2-bromoethoxy)isocoumarin]
kinact/KI ([1]; Table XVI, pH 7.5, 25° C, [I] 0.04-2.0 mM, read-out: kobs/[I]): 1250 M⁻¹ s⁻¹ | kinact/KI [2, 4]: > 480000 M⁻¹ s⁻¹ | kinact/KI (chymotrypsin; [4]): 39000 M⁻¹ s⁻¹ | kinact/KI (cathepsin G; Table XVI, [I] 35-710 μM): 200 M⁻¹ s⁻¹

CC(C)NC(=O)Nc1ccc2c(Cl)c(OCCSC(=N)N)oc(=O)c2c1 [(CH3)2 CHNHCONH-CiTEtOIC, 7-(isopropylcarbamoylamino)-4-chloro-3-(2-isothiureidoethoxy)isocoumarin]
kinact/KI (bovine thrombin): 4100 M⁻¹ s⁻¹ | kinact/KI (human thrombin): 5000 M⁻¹ s⁻¹

C[C@H](NC(=O)OC(C)(C)C)C(=O)N[C@@H](C)C(=O)Nc1ccc2c(Cl)c(OCCSC(=N)N)oc(=O)c2c1 [Boc--Ala-- Ala--NH-CiTEtOIC, 7-(N-t-butyloxycarbonyl-L-alanyl-L-alanylamino)-4-chloro-3-(2-isothiureidoethoxy)isocoumarin]
kinact/KI (bovine thrombin): 1530 M⁻¹ s⁻¹ | kinact/KI (human thrombin): 970 M⁻¹ s⁻¹

CC(C)(C)OC(=O)N[C@H](Cc1ccccc1)C(=O)Nc1ccc2c(Cl)c(OCCSC(=N)N)oc(=O)c2c1 [Boc-D-Phe--NH-CiTEtOIC, 7-(N-t-butyloxycarbonyl-D-phenylalanylamino)-4-chloro-3-(2-isothiureidoethoxy)isocoumarin]
kinact/KI (bovine thrombin): 1040 M⁻¹ s⁻¹ | kinact/KI (human thrombin): 1090 M⁻¹ s⁻¹ | percentage of inhibition (human lung tryptase): 44% | kinact/KI (rat skin tryptase): 135000 M⁻¹ s⁻¹ | percentage of inhibition ([1]; Table X, after 20 min incubation): 12% | kinact/KI ([2]; Table X, pH 7.5, 25° C, [I] 2.1-42 μM): 3100 M⁻¹ s⁻¹ | kinact/KI (chymotrypsin; Table X, pH 7.5, 25° C, [I] 0.9-43 μM): 220 M⁻¹ s⁻¹ | kinact/KI (cathepsin G; Table X, [I] 33-46 μM): 35 M⁻¹ s⁻¹ | percentage of inhibition ([3]; Table IX, not time dependent, at 0.34-5.0 μM): 65%

CC(C)(C)OC(=O)N[C@H](Cc1ccccc1)C(=O)Nc1ccc2c(Cl)c(OCCCSC(=N)N)oc(=O)c2c1 [Boc-D-Phe--NH-CiTPrOIC, 7-(N-t-butyloxycarbonyl-D-phenylalanylamino)-4-chloro-3-(3-isothiureidopropoxy)isocoumarin]
kinact/KI (bovine thrombin): 190 M⁻¹ s⁻¹ | kinact/KI (bovine trypsin): 105000 M⁻¹ s⁻¹ | kinact/KI (human thrombin): 230 M⁻¹ s⁻¹

CC(C)(C)OC(=O)N[C@@H](Cc1ccccc1)C(=O)Nc1ccc2c(Cl)c(OCCCSC(=N)N)oc(=O)c2c1 [Boc-L-Phe--NH-CiTPrOIC, 7-(N-t-butyloxycarbonyl-L-phenylalanylamino)-4-chloro-3-(3-isothiureidopropoxy)isocoumarin]
kinact/KI (bovine thrombin): 330 M⁻¹ s⁻¹ | kinact/KI (human thrombin): 520 M⁻¹ s⁻¹ | kobs/[I] (human lung tryptase; pH 7.5, 25° C, [I] 0.42-0.47 μM): 170,000 M^-1 s^-1 | kinact/KI (rat skin tryptase): 150000 M⁻¹ s⁻¹ | kinact/KI [3]: 6000 M⁻¹ s⁻¹

N=C(N)SCCCOc1oc(=O)c2cc(NC(=O)[C@H](N)Cc3ccccc3)ccc2c1Cl [D-Phe--NH-CiTPrOIC, 7-(D-phenylalanylamino)-4-chloro-3-(3-isothiureidopropoxy)isocoumarin]
kinact/KI (bovine thrombin): 180 M⁻¹ s⁻¹ | kinact/KI (bovine trypsin): 68300 M⁻¹ s⁻¹ | kinact/KI (human thrombin): 220 M⁻¹ s⁻¹

N=C(N)SCCCOc1oc(=O)c2cc(NC(=O)[C@@H](N)Cc3ccccc3)ccc2c1Cl [L-Phe--NH-CiTPrOIC, 7-(L-phenylalanylamino)-4-chloro-3-(3-isothiureidopropoxy)isocoumarin]
kinact/KI (bovine thrombin): 400 M⁻¹ s⁻¹ | kinact/KI (human thrombin): 470 M⁻¹ s⁻¹ | percentage of inhibition (human lung tryptase): 54% | kinact/KI (rat skin tryptase): 96000 M⁻¹ s⁻¹ | kinact/KI [3]: 11000 M⁻¹ s⁻¹

N=C(N)SCCOc1oc(=O)c2cc(NC(=O)Nc3cccc4ccccc34)ccc2c1Cl [Naphthyl-NHCONH-CiTEtOIC, 7-(1-naphthylcarbamoylamino)-4-chloro-3-(2-isothiureidoethoxy)isocoumarin]
kinact/KI (bovine thrombin): 17500 M⁻¹ s⁻¹ | kinact/KI (human thrombin): 5800 M⁻¹ s⁻¹

N=C(N)SCCOc1oc(=O)c2cc(NC(=S)Nc3ccccc3)ccc2c1Cl [PhNHCSNH-CiTEtOIC, 7-phenylthiocarbamoylamino-4-chloro-3-(2-isothiureidoethoxy)isocoumarin]
kinact/KI (human thrombin): 21400 M⁻¹ s⁻¹

N=C(N)SCCOc1oc(=O)c2cc(NC(=S)Nc3cccc(C(=O)O)c3)ccc2c1Cl [m-Carboxy-PhNHCSNH-CiTEtOIC, 7-(m-carboxyphenylthiocarbamoyl)amino-4-chloro-3-(2-isothiureidoethoxy)isocoumarin]
kinact/KI (human thrombin): 17500 M⁻¹ s⁻¹
